Here are results for 10 compounds from patent EP4415826B1, “SYNTHESIS AND IN VITRO ANTITUMOR ACTIVITIES OF NOVEL THIOAMIDE SUBSTITUTED PIPERAZINYL-1,2,4-TRIAZINES” (Istanbul Medipol Universitesi, priority 2021, dated 2023).

Format in all cases: cell-based
The test system of experiment [1] is HEK293. Kind of experiment: MTT cell viability assay, HEK293 healthy cell line. The settings on record: for inhibition at 50 µM: Homo sapiens, HEK293, 24 hours incubation. The method, then:
(§1) In the study, […] cell lines were purchased and used: SH-SY5Y(CRL-2266, ATCC, USA), C6 Glioma(CCL-107, ATCC, USA) and HEK293(CRL-1573, ATCC, USA). All cells were cultured and propagated in Dulbecco's Modified Eagle's Medium - high glucose (Cat. No:41966029, Gibco, USA), containing 10% (v/v) Foetal Bovine Serum (Cat. No:10500064, Gibco, USA), […] (10,000 U/mL)(Cat. No:15140122, Gibco, USA).
(§2) In order to assess the viability of the cells MTT […] assay was applied. Initially cells were seeded in the 96-well plates (VWR- 10062900) at a density of 10,000 cells/well and incubated in a cell culture incubator at 37 °C with 5% CO2 for 24 hours. Then, the cells were incubated with the tested compounds at the concentration of 100µM, 50µM, 25µM and 12.5µM for 24 hours. After completion of incubation in molecules, all media were removed and 50 µl MTT (Gold Biotechnology T-030) solution was added to each well and the plates were incubated for an additional 3 hours, followed by addition of 150 µl of MTT solubilization mixture containing 0.1% Triton X-100 (Cat. No:A4025, Biomatik, USA ) and 4mM HCI (Cat. No:07102, Sigma-Aldrich, Germany) in isopropanol(Cat. No:278475, Sigma-Aldrich, Germany). The solution was slowly mixed for 15 minutes to dissolve the MTT formazan crystals and the absorbance of each well was measured with HIDEX Sense Microplate Reader(Cat. No:425-301, HIDEX, Finland) at the wavelength of 570 nm.

Experiment [2] concerns C6 glioma. Description: MTT cell viability assay, C6. The note with it: 24 hours incubation; for inhibition at 50 µM: C6 glioma. The method, then:
as §1, §2

Experiment [3] relates to NIH-3T3. Kind of experiment: MTT cell viability assay, NIH-3T3 healthy cell line. The method, then:
as §2

Experiment [4] has as its system MCF7 breast tumor. Description: MTT cell viability assay, MCF7. As to the method: as §2
The test system of experiment [5] is SH-SY5Y neuroblastoma. Kind of experiment: MTT cell viability assay, SH-SY5Y. The settings on record: 24 hours incubation; for inhibition at 50 µM: Homo sapiens, SH-SY5Y. As to the method: as §1, §2
In experiment [6] the test system is U87MG glioblastoma. Kind of experiment: MTT cell viability assay, U87MG. The note with it: 24 hours incubation. As to the method: as §2
[7] abbreviates: Mus musculus, NIH3T3, 24 hours incubation.
The mark [8] stands for this setting: Homo sapiens, MCF7, 24 hours incubation.

In the case of `N.N.[Cl][Pt][Cl]` [Cisplatin, reference compound], the “% inhibition (50 uM) HEK293” value in experiment [1] (24 hours incubation) was 52.60%. For the same compound, the “% inhibition (50 uM) C6” value in experiment [2] is 79.02%. For the same compound, the half-inhibitory concentration (IC50) was 2.05 µM in experiment [3] (24 hours incubation), 3.55 µM in experiment [4] (24 hours incubation) and 10 µM in experiment [6]. Moreover, the “% inhibition (50 uM) SH-SY5Y” value in experiment [5] was 97.80%.

On to `CCNC(=S)N1CCN(c2nnc(-c3ccccc3)c(-c3ccccc3)n2)CC1` [Compound 1a, 4-(5,6-diphenyl-1,2,4-triazin-3-yl)-N-ethylpiperazine-1-carbothioamide], for which the inhibition at 50 µM was 97.3% in experiment [1], 37.1% in experiment [2] and 47.3% in experiment [5]. Moreover, the IC50 in experiment [3] (setting [7]) was 33.2 µM; in experiment [4] (setting [8]), 62.8 µM; in experiment [6] (Homo sapiens, U-87 MG), 29.7 µM.

In the case of `S=C(Nc1ccccc1)N1CCN(c2nnc(-c3ccccc3)c(-c3ccccc3)n2)CC1` [Compound 1b, 4-(5,6-diphenyl-1,2,4-triazin-3-yl)-N-phenylpiperazine-1-carbothioamide], the inhibition at 50 µM amounted to 96.1% in experiment [1], 86.1% in experiment [2] and 84.9% in experiment [5]. Further, the IC50 in experiment [3] (setting [7]) worked out at 42.6 µM; in experiment [6] (Homo sapiens, U-87 MG), 46 µM.

Take `Cc1ccc(NC(=S)N2CCN(c3nnc(-c4ccccc4)c(-c4ccccc4)n3)CC2)cc1` [Compound 1c, 4-(5,6-diphenyl-1,2,4-triazin-3-yl)-N-(p-tolyl)piperazine-1-carbothioamide]: the results for the inhibition at 50 µM in experiment [1], in experiment [2] and in experiment [5] were 92.6%, 46.8% and 61.6%, respectively. This compound also registered a concentration for half-maximal inhibition (IC50) in experiment [4] (setting [8]) of 73.1 µM.

As to `COc1ccc(NC(=S)N2CCN(c3nnc(-c4ccccc4)c(-c4ccccc4)n3)CC2)cc1` [Compound 1d, 4-(5,6-diphenyl-1,2,4-triazin-3-yl)-N-(4-methoxyphenyl)piperazine-1-carbothioamide], the figures for the inhibition at 50 µM in experiment [1], in experiment [2] and in experiment [5] were 98%, 93.3% and 68%, respectively. The IC50 in experiment [4] (setting [8]) was 61.6 µM; in experiment [6] (Homo sapiens, U-87 MG) it was 55 µM.

Turning to `O=[N+]([O-])c1ccc(NC(=S)N2CCN(c3nnc(-c4ccccc4)c(-c4ccccc4)n3)CC2)cc1` [Compound 1e, 4-(5,6-diphenyl-1,2,4-triazin-3-yl)-N-(4-nitrophenyl)piperazine-1-carbothioamide], the figures for the inhibition at 50 µM in experiment [1], in experiment [2] and in experiment [5] were 95.9%, 94.4% and 21.9%, respectively.

Regarding `S=C(Nc1ccc(Cl)cc1)N1CCN(c2nnc(-c3ccccc3)c(-c3ccccc3)n2)CC1` [Compound 1f, N-(4-chlorophenyl)-4-(5,6-diphenyl-1,2,4-triazin-3-yl)piperazine-1-carbothioamide], the inhibition at 50 µM was 73.6% in experiment [1], 66.6% in experiment [2] and 94.1% in experiment [5]. Also, the IC50 in experiment [3] (setting [7]) is 65.3 µM; in experiment [6] (Homo sapiens, U-87 MG) it was 59.1 µM.

As to `COc1ccc(-c2nnc(N3CCN(C(=S)Nc4ccccc4)CC3)nc2-c2ccc(OC)cc2)cc1` [Compound 1g, 4-(5,6-bis(4-methoxyphenyl)-1,2,4-triazin-3-yl)-N-phenylpiperazine-1-carbothioamide], the inhibition at 50 µM in experiment [1] stood at 97.4%; in experiment [2] it was 63.7%; in experiment [5], 46.2%. The IC50 in experiment [3] (setting [7]) was found to be 76 µM; in experiment [4] (setting [8]), 91.2 µM; in experiment [6] (Homo sapiens, U-87 MG), 68.1 µM.

Turning to `S=C(Nc1ccccc1)N1CCN(c2nnc(-c3ccc(Cl)cc3)c(-c3ccc(Cl)cc3)n2)CC1` [Compound 1h, 4-(5,6-bis(4-chlorophenyl)-1,2,4-triazin-3-yl)-N-phenylpiperazine-1-carbothioamide], the results for the inhibition at 50 µM in experiment [1], in experiment [2] and in experiment [5] were 87.4%, 77.9% and 87.9%, respectively. Moreover, the IC50 in experiment [3] (setting [7]) stood at 40.2 µM; in experiment [4] (setting [8]), 77.2 µM.

Turning to `S=C(Nc1ccc(Cl)cc1)N1CCN(c2nnc(-c3ccc(Cl)cc3)c(-c3ccc(Cl)cc3)n2)CC1` [Compound 1i, 4-(5,6-bis(4-chlorophenyl)-1,2,4-triazin-3-yl)-N-(4-chlorophenyl)piperazine-1-carbothioamide], the inhibition at 50 µM in experiment [1] worked out at 68.4%; in experiment [2], 78.3%; in experiment [5] it was 83.6%. In addition, the IC50 in experiment [3] (setting [7]) amounted to 81.5 µM; in experiment [6] (Homo sapiens, U-87 MG), 98.6 µM.
